According to patent US20110281854A1, “MORPHOLINE COMPOUNDS” (Pfizer Inc, priority 2010, published 2011):

molecular target: T1, MR (Homo sapiens, UniProt P08235); assay: Cell-based reporter assay (Gal4-MR-LBD luciferase, antagonist mode); conditions: not given
T1 construct: expressed in transfected cells; host or cells: Huh7 human liver cells (ATCC), transient transfection with FuGENE 6
T1 sequence (P08235 726-964 limits assumed): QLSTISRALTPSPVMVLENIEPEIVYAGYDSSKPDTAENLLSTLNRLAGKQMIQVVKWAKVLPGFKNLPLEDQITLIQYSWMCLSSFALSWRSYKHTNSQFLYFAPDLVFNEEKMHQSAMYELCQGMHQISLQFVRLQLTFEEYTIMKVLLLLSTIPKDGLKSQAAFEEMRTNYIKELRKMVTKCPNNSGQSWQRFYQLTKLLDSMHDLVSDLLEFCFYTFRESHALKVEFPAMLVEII
Method: To measure the ability of test compound in the present invention to modulate the activity of MR (agonize, antagonize, partially agonize, partially antagonize), bioassays were performed that measured the modulation of reporter gene expression. Cells were transiently transfected with a luciferase reporter gene under the control of a Gal4 response element (Gal4-RE-luc) and a plasmid containing the Gal4 DNA binding domain fused to the MR ligand binding domain (Gal4-MR-LBD). Agonists can bind to and activate the MR-LBD, which activates the expression of the luciferase reporter gene through interaction with the Gal4 response element. […] Antagonists can compete for binding to the NHR-LBD and decrease the agonist-induced transcriptional activity of the reporter gene. Therefore, measurement of luciferase activity allowed quantitative determinations of the reporter transcription in the presence of either agonists or competitive antagonists.
The final concentration of DMSO in the test plate was 0.5%. Following an overnight incubation with compound, 25 μL of Steady-Glow™ lysis buffer with luciferase substrate (Promega Corporation, E2550) was added directly to the cells. After a 30-minute incubation to completely lyse the cells, the microplates were counted in an Envision™ Multilabel Reader (Perkin Elmer) in single photon counting mode.

IC50 | Compound
97.9 nM | N#CC[C@@H]1CN(c2ccc3c(n2)NC(=O)CO3)[C@H](c2ccccc2)CO1 [Example 40, 2-((2R,5R)-4-(3-oxo-3,4-dihydro-2H-pyrido[3,2-b][1,4]oxazin-6-yl)-5-phenylmorpholin-2-yl)acetonitrile]
5230 nM | O=C1COc2ccc(N3CCOC[C@@H]3c3ccccc3)cc2N1 [Example 41, (S)-6-(3-phenylmorpholino)-2H-benzo[b][1,4]oxazin-3(4H)-one]
527 nM | C[C@@H]1CN(c2ncc3c(n2)NC(=O)CO3)[C@H](c2ccccc2)[C@H](C)O1 [Example 42, 2-((2S,3R,6R)-2,6-dimethyl-3-phenylmorpholino)-6H-pyrimido[5,4-b][1,4]oxazin-7(8H)-one]
395 nM | C[C@@H]1CN(c2cc3c(cn2)OCC(=O)N3)[C@H](c2ccccc2)[C@H](C)O1 [Example 43, 7-((2S,3R,6R)-2,6-dimethyl-3-phenylmorpholino)-1H-pyrido[3,4-b][1,4]oxazin-2(3H)-one]
1230 nM | O=C1COc2cnc(N3C[C@@H](C4CC4)OC[C@H]3c3ccccc3)nc2N1 [Example 44, 2-((2R,5R)-2-cyclopropyl-5-phenylmorpholino)-6H-pyrimido[5,4-b][1,4]oxazin-7(8H)-one]
349 nM | C[C@@H]1CN(c2ccc3oc(=O)[nH]c3c2)[C@H](c2ccccc2)CO1 [Example 45, 5-((2R,5R)-2-methyl-5-phenylmorpholino)benzo[d]oxazol-2(3H)-one]
252 nM | C[C@@H]1CN(c2cc3c(cn2)OCC(=O)N3)[C@H](c2ccccc2)CO1 [Example 46, 7-((2R,5R)-2-methyl-5-phenylmorpholino)-1H-pyrido[3,4-b][1,4]oxazin-2(3H)-one]
1630 nM | C[C@@H]1CN(c2ccc3c(c2)NS(=O)(=O)CO3)[C@H](c2ccccc2)CO1 [Example 47, 7-[(2R,5R)-2-methyl-5-phenylmorpholin-4-yl]-1H-4,2,1-benzoxathiazine 2,2-dioxide]
278 nM | C[C@@H]1CN(c2ccc3c(n2)NC(=O)CO3)[C@H](c2ccc(F)cc2F)CO1 [Example 52, 6-((2R,5R)-5-(2,4-difluorophenyl)-2-methylmorpholino)-2H-pyrido[3,2-b][1,4]oxazin-3(4H)-one]
7450 nM | CC1(C)OCCN(c2ccc3c(n2)NC(=O)CO3)C1c1ccccc1 (stereo not drawn) [Example 53, 6-(2,2-dimethyl-3-phenylmorpholino)-2H-pyrido[3,2-b][1,4]oxazin-3(4H)-one]
2800 nM | C[C@@H]1CN(c2ccc3c(n2)NC(=O)CO3)C[C@@H](C)O1 [Example 54, 6-((2R,6R)-2,6-dimethylmorpholino)-2H-pyrido[3,2-b][1,4]oxazin-3(4H)-one]
485 nM | C[C@@H]1CN(c2ncc3c(n2)NC(=O)CO3)[C@H](c2ccc(F)cc2)CO1 [Example 55, 2-((2R,5R)-5-(4-fluorophenyl)-2-methylmorpholino)-6H-pyrimido[5,4-b][1,4]oxazin-7(8H)-one]
4690 nM | CC[C@@H]1CN(c2ccc3c(n2)NC(=O)CO3)C[C@H](CC)O1 [Example 57, 6-(cis-2,6-diethylmorpholino)-2H-pyrido[3,2-b][1,4]oxazin-3(4H)-one]
2990 nM | C[C@@H]1CN(c2cnc3c(c2)NC(=O)CO3)[C@H](c2ccccc2)CO1 [Example 58, 7-((2R,5R)-2-methyl-5-phenylmorpholino)-1H-pyrido[2,3-b][1,4]oxazin-2(3H)-one]
9560 nM | C[C@@H]1CN(c2nc3c(cc2C#N)OCC(=O)N3)[C@H](c2ccccc2)CO1 [Example 60, 6-((2R,5R)-2-methyl-5-phenylmorpholino)-3-oxo-3,4-dihydro-2H-pyrido[3,2-b][1,4]oxazine-7-carbonitrile]
646 nM | C[C@@H]1CN(c2cc3c(cn2)OCC(=O)N3)[C@H](c2ccc(F)cc2)CO1 [Example 61, 7-((2R,5R)-5-(4-fluorophenyl)-2-methylmorpholino)-1H-pyrido[3,4-b][1,4]oxazin-2(3H)-one]
4270 nM | Cc1c(NS(C)(=O)=O)cccc1N1C[C@@H](C)OC[C@H]1c1ccccc1 [Example 63, N-(2-methyl-3-((2R,5R)-2-methyl-5-phenylmorpholino)phenyl)methanesulfonamide]
2280 nM | Cc1nc(N2C[C@@H](C)OC[C@H]2c2ccccc2)nc2c1OCC(=O)N2 [Example 68, 4-methyl-2-((2R,5R)-2-methyl-5-phenylmorpholino)-6H-pyrimido[5,4-b][1,4]oxazin-7(8H)-one]
204 nM | C[C@@H]1CN(c2ccc3c(n2)NC(=O)CO3)[C@H](c2ccccc2)[C@H](C)O1 [Example 69, 6-((2S,3R,6R)-2,6-dimethyl-3-phenylmorpholino)-2H-pyrido[3,2-b][1,4]oxazin-3(4H)-one]
628 nM | O=C1COc2ccc(N3CC4(COC4)OC[C@H]3c3ccccc3)nc2N1 [Example 70, (R)-6-(7-phenyl-2,5-dioxa-8-azaspiro[3.5]nonan-8-yl)-2H-pyrido[3,2-b][1,4]oxazin-3(4H)-one]
1930 nM | C[C@@H]1CN(c2ccc3c(n2)NC(=O)CO3)[C@H](C)CO1 [Example 71, 6-((2R,5R)-2,5-dimethylmorpholino)-2H-pyrido[3,2-b][1,4]oxazin-3(4H)-one]
8750 nM | O=C1COc2ccc(N3CCOC4(CCCc5ccccc54)C3)cc2N1 (stereo not drawn) [Example 72, 6-(3′,4′-dihydro-2′H-spiro[morpholine-2,1′-naphthalene]-4-yl)-2H-benzo[b][1,4]oxazin-3(4H)-one]
6340 nM | O=C1COc2ccc(N3CCOC4(CCOc5ccccc54)C3)cc2N1 (stereo not drawn) [Example 73, 6-(spiro[chroman-4,2′-morpholine]-4′-yl)-2H-benzo[b][1,4]oxazin-3(4H)-one]
3420 nM | Cc1ccc(C2(C)CN(c3ccc4c(c3)NC(=O)CO4)CCO2)cc1 (stereo not drawn) [Example 74, 6-(2-methyl-2-p-tolylmorpholino)-2H-benzo[b][1,4]oxazin-3(4H)-one]
3080 nM | O=C1COc2ccc(N3CCOC(c4ccccc4)C3c3ccccc3)cc2N1 (stereo not drawn) [Example 75, 6-(2,3-diphenylmorpholino)-2H-benzo[b][1,4]oxazin-3(4H)-one]

Compound | IC50
C[C@@H]1CN(c2ccc3ccc(=O)[nH]c3c2)[C@H](c2ccccc2)CO1 [Example 59, 7-((2R,5R)-2-methyl-5-phenylmorpholino)quinolin-2(1H)-one] | 703 nM

same assay, conditions: antagonist mode; decrease of EC80 aldosterone signal by 50%; Huh7 cells transfected with Gal4-MR-LBD and Gal4-RE-luc

IC50 | Compound
5330 nM | (±)-2-(cis-5-(2-methoxyphenyl)-2-methylmorpholino)-6H-pyrimido[5,4-b][1,4]oxazin-7(8H)-one [Example 56]
